Data taken from article PMC11642070, “OCTN1 (SLC22A4) as a Target of Heavy Metals: Its Possible Role in Microplastic Threats” (International Journal of Molecular Sciences, 2024).
Positions count from the first letter of the chain named.

Columns and labels:
[1] = according to ATSDR; ref https://www.atsdr.cdc.gov/toxprofiles; cited from earlier work
[2] = target: T1, human OCTN1 (Homo sapiens, UniProt Q9H015); type: biochemical; settings: 60 min; for IC50: OCTN1 WT proteoliposomes, 0.1 mM [14C]-TEA, read-out: IC50 (µM) on [14C]-TEA uptake
T1 construct: made in house; host or cells: E. coli Rosetta(DE3)pLysS
T1 sequence (Q9H015 1-551): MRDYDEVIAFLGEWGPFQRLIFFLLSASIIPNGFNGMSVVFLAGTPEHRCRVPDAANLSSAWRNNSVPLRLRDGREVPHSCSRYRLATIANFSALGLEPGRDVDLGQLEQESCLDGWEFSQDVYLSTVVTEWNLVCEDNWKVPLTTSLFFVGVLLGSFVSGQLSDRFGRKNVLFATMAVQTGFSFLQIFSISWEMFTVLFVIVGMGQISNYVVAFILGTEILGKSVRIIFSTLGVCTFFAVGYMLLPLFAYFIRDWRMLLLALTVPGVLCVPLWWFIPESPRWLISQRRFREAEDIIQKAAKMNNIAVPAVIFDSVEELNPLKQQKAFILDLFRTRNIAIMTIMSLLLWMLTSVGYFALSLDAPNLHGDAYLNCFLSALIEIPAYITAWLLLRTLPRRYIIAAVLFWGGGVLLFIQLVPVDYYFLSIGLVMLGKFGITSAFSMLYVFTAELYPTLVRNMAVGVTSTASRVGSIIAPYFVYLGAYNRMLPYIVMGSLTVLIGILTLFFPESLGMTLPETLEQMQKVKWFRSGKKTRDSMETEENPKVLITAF
Protocol: (§1) After desalting, the protein was reconstituted in liposomes. The composition of the initial mixture used for reconstitution was as follows: 50 µg of protein (or desalt buffer in liposomes without the incorporated protein), 80 µL of 10% C12E8, 120 µL of 10% egg yolk phospholipids with 25% cholesterol in the form of sonicated liposomes, 16 mM ATP disodium salt, and 5 mM BisTris/HCl (pH 7.5) in a final volume of 700 µL. The purified OCTN1 (WT or C-less mutant) was inserted in the liposomal membrane using the batch-wise technique. This procedure used 0.5 g of Amberlite XAD-4 to remove the detergent from mixed micelles consisting of proteins, phospholipids and detergent at 23 °C for 40 min at 1200 rpm, as previously described.
(§2) Proteoliposomes and liposomes (600 μL) were applied onto a Sephadex G-75 (Merck Life Science, Milan, Italy) column (0.7 cm diameter × 15 cm height) pre-equilibrated with 5 mM BIS-Tris/HCl (pH 8.0) and eluted with 600 μL of the same buffer. Samples of 100 μL each were prepared from the 600 μL pool. The transport was initiated by [^14C]-TEA or [^3H]-Ach at the concentration of 0.1 mM to the proteoliposome samples and stopped after 60 min according to the stop-inhibitor method. In the blank samples, the inhibitor (1 mM Hemicholinium-3) was added at time zero. After the transport time, each sample was applied onto a Sephadex G-75 column (0.6 cm diameter × 8 cm height) and pre-equilibrated with 50 mM NaCl to remove the radioactivity not taken up. Proteoliposomes were eluted with 50 mM NaCl (1 mL), added to 3 mL Pico-Fluor Plus, vortexed, and counted. The radioactivity in the blank samples was used to subtract background radioactivity from the protein-associated one.
All experimental data were derived from the mean of three independent experiments, and results were expressed as means ± SD. IC50 values were derived from data fitting the IC50 equation using Grafit v 5.0.13 software (Erithacus Software (v 5.0.13), East Grinstead, UK).

[3] = target: T2, Cys-less OCTN1 (Homo sapiens, UniProt Q9H015, C113A/C136A/C236A/C270A/C374A/C50A/C81A); assay: [14C]-TEA uptake by Cys-less OCTN1 mutant reconstituted in proteoliposomes; type: biochemical; settings: 100 µM metal (250 µM CrCl2), 0.1 mM [14C]-TEA, 60 min
T2 construct: made in house; host or cells: E. coli Rosetta(DE3)pLysS
T2 sequence (Q9H015 1-551 C50A/C81A/C113A/C136A/C236A/C270A/C374A): T1 sequence (Q9H015 1-551) with C50A, C81A, C113A, C136A, C236A, C270A, C374A
Protocol: The over-expression of OCTN1 wild type (WT) and C-less mutant proteins, as previously described in [17], has been performed in E. coli Rosetta(DE3)pLysS, as described in [60, 61].
as §1, with “This procedure used 0.5 g of Amberlite XAD-4 to remove the detergent from mixed micelles consisting of proteins, phospholipids and detergent at 23 °C for 40 min at 1200 rpm, as previously described.” left out
as §2, with “Samples of 100 μL each were prepared from the 600 μL pool. The transport was initiated by [^14C]-TEA or [^3H]-Ach at the concentration of 0.1 mM to the proteoliposome samples and stopped after 60 min according to the stop-inhibitor method. In the blank samples, the inhibitor (1 mM Hemicholinium-3) was added at time zero.” left out

SMILES | Level of Toxicity [1] | IC50 [2] | further results
[Cd] [Cadmium] | +++ |  | 
[Cl][Cd][Cl] [CdCl2, Cadmium chloride] |  | 56 ± 4 µM | 
[Cr] [Chromium] | +++ |  | 
[Cl][Cr][Cl] [CrCl2, Chromium (II) chloride] |  | 170 ± 15 µM | Effect of DTE and cysteine on the inhibition of [14C]-TEA transport by heavy metals ([2]; 100 µM metal (250 µM CrCl2), 5 mM DTE or Cys): only exception; Inhibition of [14C]-TEA transport by Cys-less OCTN1 [3]: only exception
[Cl][Hg][Cl] [HgCl2, Mercury (II) chloride] |  | 121 ± 7 µM | 
O=[N+]([O-])[O-].O=[N+]([O-])[O-].[Pb+2] [Pb(NO3)2, Lead nitrate] |  | 90 ± 19 µM | 
[Zn] [Zinc] | + |  | 
[Cl-].[Cl-].[Zn+2] [ZnCl2, Zinc chloride] |  | 57 ± 17 µM | 
